According to patent publication US20130190289A1, “COMPOUNDS AND METHODS FOR THE TREATMENT OR PREVENTION OF FLAVIVIRUS INFECTIONS” (priority 2010, published 2013):
Like-named read-outs stand apart in the source and are kept apart here.

How the values were obtained:
[1] = system: Huh-7 ET, Molt-4, DU-145, Hep-G2 and SH-SY5Y cells; experiment: [3H]Thymidine incorporation assay (cell toxicity); details: read-out: [3H]Thymidine CC50; [3H]thymidine incorporation, cell toxicity; mean value class; cell line not given
[2] = system: HCV replicon (genotype 1b) in Huh7 cell line ET; experiment: microbe, parasite or virus in culture; assay type: cell-based, HCV genotype 1b
[3] = system: HCV sub-genomic replicon of genotype 1a in replicon cell line W11.8; experiment: microbe, parasite or virus in culture; assay type: cell-based, HCV genotype 1a
Source text: This procedure below describes the HCV replicon assay using a Huh7 hepatoma cell line harboring a highly cell culture-adapted replicon (genotype 1b) (hereafter named cell line ET). The ET cells contained the highly cell culture-adapted replicon I389luc-ubi-neo/NS3-3′/5.1 construct that carried, in addition to the neomycin gene, an integrated copy to the firefly luciferase gene (Krieger, N; Lohmann, V; Bartenschlager, R. Enhancement of hepatitis C virus RNA replication by cell culture-adaptive mutations. J. Virol. 2001, 75, 4614-4624). A replicon cell line W11.8, containing the 1a genotype of HCV was also used. These two cell lines (genotype 1b and 1a) allowed measurement of RNA replication and translation by measuring luciferase activity (against genotype 1b) or by measuring the NS5A level using the ELISA assay (against genotype 1a). […] ET cell lines were maintained in cultures at a sub-confluent level (<85%). The culture media used for cell passaging consisted of DMEM (Gibco BRL Laboratories, Mississauga, ON, Canada) supplemented with 10% fetal bovine serum with 1% penicilin/streptomycin, 1% glutamine, 1% sodium pyruvate, 1% non-essential amino acids, and 180 µg/ml of G418 final concentration.
Replicon cell lines W11.8 containing a sub-genomic replicon of genotype 1a was used for the HCV Replicon Cell-Based detection using the ELISA. The RNA replication in presence of different drug concentrations was indirectly measured in these cell lines by the level of NS5A protein content upon drug treatment for four days. The NS5A is a non-structural protein of HCV and is used as marker of HCV replication in this assay.
For the treatment of the cells with the testing drug, Culture medium was removed from the 175 cm^2 T-flask by aspiration. Cell monolayer was rinsed with 10-20 mL of PBS 1× at room temperature. PBS was removed by aspiration. Cells were trypsinized using 3 mL of Trypsin (0.25%)/EDTA (0.1%) solution. Flasks were incubated at 37° C. (incubator) for 7 minutes. Complete medium (9 mL) without G418 is then added. Cell clumps were disrupted by pipetting up and down several times.
The cell suspension was then transferred to a 50 mL Falcon polypropylene tube. Cells were then counted several times using the haemocytometer. Cells were diluted at 50,000 cells/mL with complete DMEM without G418, then transferred into a sterile reservoir. Using a multichannel pipet, approximately 5,000 viable cells (100 μL) were plated per well in a white opaque 96-well microtiter plate. After an incubation period of 2-4 hours at 37° C. in a 5% CO2 incubator, compounds were added at various concentrations.
Drugs were resuspended in DMSO at a stock concentration of 100 mM or 10 mM. […] Then, drugs were diluted at twice the final concentration in the same medium (without G418) described earlier, in sterile 96-deep well plate and according to a particular template (see Appendix). One volume (100 μL) of each drug dilution was then added to each well that contains cells.
Sixteen wells were used as control (0% inhibition) without drug. Eight wells were used as background control (100% inhibition) containing 2 μM (final concentration) of the reference compound. […] Values from 100% inhibited wells were averaged and used as the background value. Cells are further incubated for 4 days at 37° C. in a 5% CO2 incubator.
For the measurement of NS5A protein content, following the incubation time of four days, the media was throwed into an appropriate waste container by inverting the plate. Any residual liquid was removed by tapping gently on absorbent paper several times. The plates were then washed once with 150 μL of PBS per well, and then incubated for 5 minutes at room temperature on a shaker (500 rpm).

[4] = [3H]Thymidine incorporation assay (cell toxicity); details: human
[5] = read-out: HCV-Replicon-(Luci-ET) 1b_IC50
[6] = Hepatitis C virus, Huh-7, 96 h, read-out: HCV-Replicon (Luci-ET)-1b_IC50
[7] = Hepatitis C virus, W11.8, 96 h, read-out: HCV-Replicon-ELISA-1a IC50
[8] = Hepatitis C virus, Huh-7, read-out: HCV-Replicon-(Luci-ET) 1b_IC50
[9] = Hepatitis C virus, W11.8, read-out: HCV-Replicon-ELISA-1a IC50

Row | SMILES | CC50 [1] | IC50 [2, 5] | CC50 at 72 h [4] | IC50 [2, 8] | IC50 [3, 9] | further results
1 | CO[C@H](C)[C@@H](C(=O)N(C)C)N(c1cc(C#CC(C)(C)C)sc1C(=O)O)C(=O)[C@H]1CC[C@H](C)CC1 [Compound 57] | > 100 µM | < 0.1 µM |  |  |  | 
2 | COC(C)C(C(=O)N1CCOCC1)N(C(=O)C1CCC(C)CC1)c1cc(C#CC(C)(C)C)sc1C(=O)O (centres unmarked) [Compound 65] | > 100 µM | < 0.1 µM |  |  |  | 
3 | CC(C)C#Cc1cc(N(CC(=O)N2CC3(COC3)C2)C(=O)C2CCC(C)CC2)c(C(=O)O)s1 (centres unmarked) [Compound 71] | > 100 µM | < 0.1 µM |  |  |  | 
4 | COC(C)C(C(=O)N(C)C)N(C(=O)C1CCC(C)CC1)c1cc(C#CC(C)(C)C)sc1C(=O)O (centres unmarked) [Compound 75] | 10 to 100 µM | < 0.1 µM |  |  |  | 
5 | CC[C@@H](C(=O)N1CCN(C)CC1)N(c1cc(C#CC(C)(C)C)sc1C(=O)O)C(=O)[C@H]1CC[C@H](C)CC1 [Compound 82] | > 100 µM | < 0.1 µM |  |  |  | IC50 ([3]; read-out: HCV-Replicon-ELISA-1a IC50): < 0.1 µM
6 | COCCN1CC[C@H](N(c2cc(C#CC(C)(C)C)sc2C(=O)O)C(=O)[C@H]2CC[C@H](C)CC2)C1=O [Compound 133, 5-(3,3-Dimethylbut-1-ynyl)-3-[[(3S)-1-(2-methoxyethyl)-2-oxo-pyrrolidin-3-yl]-(trans-4-methylcyclohexanecarbonyl)amino]thiophene-2-carboxylic acid] |  |  | > 100 µM |  |  | IC50 [2, 6]: < 0.1 µM; IC50 [3, 7]: < 0.1 µM
7 | CC1CCC(C(=O)N(c2cc(C#CC(C)(C)C)sc2C(=O)O)[C@H]2CCCCN(C)C2=O)CC1 (stereo partly drawn) [Compound 95, 5-(3,3-dimethylbut-1-yn-1-yl)-3-(4-methyl-N—((S)-1-methyl-2-oxoazepan-3-yl)cyclohexanecarboxamido)thiophene-2-carboxylic acid] |  |  | 10 to 100 µM | < 0.1 µM | < 0.1 µM | 
8 | CC[C@@H](C(=O)N(C)C)N(c1cc(C#CC(C)(C)C)sc1C(=O)O)C(=O)[C@H]1CC[C@H](C)CC1 [Compound 13] |  |  | > 100 µM | < 0.1 µM | < 0.1 µM | 
9 | CC(C)N1CC[C@H](N(c2cc(C#CC(C)(C)C)sc2C(=O)O)C(=O)[C@H]2CC[C@H](C)CC2)C1=O [Compound 142, 5-(3,3-dimethylbut-1-ynyl)-3-[[(3S)-1-isopropyl-2-oxo-pyrrolidin-3-yl]-(trans-4-methylcyclohexanecarbonyl)amino]thiophene-2-carboxylic acid] |  |  | 10 to 100 µM |  |  | IC50 [2, 6]: < 0.1 µM; IC50 [3, 7]: < 0.1 µM
10 | COCC(C(=O)N(C)C)N(C(=O)C1CCC(C)CC1)c1cc(C#CC(C)(C)C)sc1C(=O)O (single isomer, unassigned) [Compound 21] |  |  | > 100 µM | < 0.1 µM | < 0.1 µM | 
